Measured values as given in patent US9938240B2, “Fluorinated derivatives of 3-hydroxypyridin-4-ones” (Apotex Technologies Inc., priority 2009, dated 2018).

Tests used:
[1] = pKa determination by spectrophotometric titration; type: physicochemical; conditions: for pKa: 0.1 M NaCl solution, read-out: pKa (amine); for Logβ011 / Logβ012 / Logβ013: cumulative ligand protonation; for Logβ011 / Logβ012 / Logβ013 / pKa1(L) / pKa2(L) / pKa3(L): Example 53; for pKa1(L) / pKa2(L) / pKa3(L): ligand, spectrophotometric titration
Protocol: The pKa values of ligands can be determined by spectrophotometric titration when both the conjugated acid and base absorb in the UV-visible region. In a typical experiment, the sample solution was prepared by the following method: Apo7041 stock solution (12.74 mg) was weighed into a 10 mL volumetric flask, and 0.1 M NaCl solution was added to volume. The mixture was sonicated and voltexed to give a clear colorless solution. The concentration of Apo7041 of this stock solution is 5.1×10^−3 M.
Apo7041 sample solution: 727 μL of the above stock solution was transferred into a 50 mL volumetric flask by using a 1000 μL digital pipet, and 0.1 M NaCl was added to volume. The resulting solution was vortexed to mix to give a sample solution. The concentration of Apo7041 of this sample solution is 7.4×10^−5 M. 20 mL of the sample solution was transferred into a 35 mL beaker by using a 10 mL digital pipet. The sample solution was circulated between the beaker and the flow cell using a sipper system.
The sample solution was titrated against standard hydrochloric acid solutions at 22° C. to reach pH 1.11. After each addition of acid the solution was allowed to equilibrate until a constant pH reading was reached. The pH and the UV-Vis spectrum were recorded for each measurement. The solution was titrated until there was no obvious change in the spectra after several subsequent additions of acid. Thus, 30 measurements were recorded.
The resulting data set was then analyzed using pHAB (Peter Gans, University of Leeds). The pKa values were obtained using the model: LH+H^+⇄LH2^+, and LH2^++H^+⇄LH3^2+ (pKa3). Thus, Apo7041 has pKa2=3.51, and pKa3=1.23 as determined spectrophotometrically.
The pKa values of Apo7323 were determined by spectrophotometric titration using an Agilent 8453 UV-visible spectroscopy system (see Example 26).

[2] = Oral cassette dosing PK/BBB studies; type: in vivo, male Sprague-Dawley rats; conditions: for AUC brain* / Kp / AUC: oral cassette dosing, male Sprague-Dawley rats; for AUC brain* / AUC: AUC normalized to 1 mg/kg dose; for Kp / AUC: rat; for Kp: brain and plasma, read-out: AUC brain/AUC plasma; for AUC: plasma
Protocol: In-vivo pharmacokinetic (PK) and blood brain barrier (BBB) studies were conducted in male Sprague-Dawley rats using cassette dosing via oral administration. […] No. 15, pp. 652-658.

[3] = Stepwise formation constants for Fe-ligand system by titration in 0.1M NaCl; type: physicochemical; conditions: for pFe^3+: pH 7.4, ligand 10 μM, metal 1 μM, HySS; for K111 / K122 / K133: stepwise constant, Fe-ligand system, Example 53
Protocol: Stepwise formation constants for M^n+-ligand systems were determined by spectrophotometric titration when metal complexes have a strong absorbance in the visible region due to ligand to metal charge transfer.
In a typical experiment, the sample solution was prepared according to the following procedure: compound Apo7041 (12.96 mg) was weighed into a 50 mL volumetric flask, and about 40 mL of 0.1 M NaCl was added. The mixture was sonicated for 10 min to give a clear colorless solution. The iron stock solution (atomic absorption standard, Aldrich, 565 μL, 10.00 μmol) was pipetted into the solution, followed by the addition of 1.000 N NaOH (170 μL). More of the 0.1 M NaCl was added to volume and the resulting solution was vortexed to mix. The molar ratio between the total iron and the total Apo7041 was 1/5.1. The mixture was vortexed at rt for 1 h. 20 mL of the sample solution was transferred into a 35 mL beaker by using a 10 mL digital pipet. The sample solution was circulated between the beaker and the flow cell using a sipper system. The sample solution was titrated against hydrochloric acid solutions at 22° C. until the pH reached 0.021. After each addition of acid, the solution was allowed to equilibrate until a constant pH reading was reached. The pH and the UV-Vis spectrum were recorded for each measurement. For each measurement enough acid was added so that there was a slight decrease in the absorbance of the spectrum. Altogether, 68 measurements were taken to finish the experiment.
The resulting data set was then analyzed using pHAB. The formation constants for Fe-Apo7041 system were optimized using the model shown in the first column of the table.
pM^n+ is defined as −log [M(H2O)m]^n+ at physiological conditions, i.e.: pH 7.4, a ligand concentration of 10 μM, and a metal concentration of 1 μM. To calculate pM^n+ for a MLn system, βn and pKa values are needed (βn are the formation constants for M^n++n L^−⇄MLn; pKa are the equilibrium constants for L^−+n H^+⇄LHn^(n-1)+). The pM^n+ is calculated using the HySS software (HYSS© 2000 Protonic Software).
The log β values of the Fe-Apo7323 system were determined by spectrophotometric titration using an Agilent 8453 UV-visible spectroscopy system (see Example 29B). The sample solution was a mixture of Fe^3+ (2×10^−4 M) and Apo7323 (1×10^−3 M) in 0.1 N NaCl aqueous solvent. The titration data in a pH range of 3.408 to 0.655 were fitted with pHAB using the model shown in FIG. 1 to obtain Log β111, Log β122, and Log β133.
The sample solution was a mixture of Fe^3+ (6×10^−3M) and Apo7323 (1.8×10^−2M) in 0.1 N NaCl aqueous solvent. The titration started at pH 1.72 and ended at pH 11.5 using 3 M NaOH as the titrant. The titration data in a pH range of 3 to 10 were fitted with Hyperquad2000 software using the model:
[drawing 175] where 133 is the species (FeL3H3)^3+, 132 is the species is (FeL3H2)^2+, 131 is the species (FeL3H)^+, and 130 is the species FeL3.
(§1) After obtaining three pKa values for Apo7323 (ligand), three pKa values for the Fe-Apo7323 complex, and the log β values for Fe-Apo7323 as shown in the following table, a speciation plot (FIG. 14) was constructed using the HySS software program. pFe was also calculated using the HySS software.

[4] = Fe speciation plot (HySS); type: physicochemical; conditions: for % FeL2H2 at pH 7.4 / % FeL3 (species 130, neutral/uncharged ferric chelate) at pH 7.4 / % FeL3H2 (species 132) at pH 7.4 / % FeL3H3 (species 133) at pH 7.4 / % FeL3H (species 131) at pH 7.4: Fe:ligand 1:10, [Fe]=1×10^−6 M, [L]=1×10^−5 M
Description: Example 54 illustrates the speciation distribution of several amino fluorinated derivatives of 3-hydroxypyridin-4-(1H)-ones of the invention. The speciation plot (distribution of ferric chelate species) of two compounds of formula I (Apo7067 and Apo7323) at pH 7.4 is provided in the following table.
as §1

[5] = spectrophotometric, 0.1 M NaCl, 22° C.
[6] = 0.1 M NaCl, spectrophotometric titration
[7] = 0.1 M NaCl, spectrophotometric titration, fitted

Row | Structure (SMILES) | pKa ([1]; amino group of the ligand) | Log β111 (Fe3+) [3, 6] | Log β122 (Fe3+) [3, 6] | Log β133 (Fe3+) [3, 6] | Logβ011 [1] | Logβ012 [1] | Logβ013 [1] | pKa1(L) [1] | pKa2(L) [1] | pKa3(L) [1] | Log β130 (Fe3+) ([3]; Example 53: Log β131 − pKa1(C)) | Log β131 (Fe3+) ([3]; Example 53: Log β132 − pKa2(C)) | Log β132 (Fe3+) ([3]; Example 53: Log β133 − pKa3(C)) | K111 [3] | K122 [3] | K133 [3] | % FeL2H2 at pH 7.4 [4] [%] | % FeL3 (species 130, neutral/uncharged ferric chelate) at pH 7.4 [4] [%] | % FeL3H2 (species 132) at pH 7.4 [4] [%] | % FeL3H3 (species 133) at pH 7.4 [4] [%] | also measured
1 | CN(C)C(c1c(O)c(=O)ccn1C)C(F)(F)F (centres unmarked) [Apo7041, 2-[1-(dimethylamino)-2,2,2-trifluoroethyl]-3-hydroxy-1-methylpyridin-4(1H)-one] | 3.5 | 18.1 | 35.0 | 50.5 |  |  |  |  |  |  |  |  |  |  |  |  |  |  |  |  | pKa (amine) ([1]; amino group of the ligand): 3.51; pKa2 [1, 5]: 3.51; pKa3 [1, 5]: 1.23; BBB penetration ([2]; cassette dosing BBB studies in rats, in words): less favorable than deferiprone in BBB penetration; AUC brain* [2]: 450 ng·h/mL; Kp [2]: 0.75; AUC [2]: 600 ng·h/mL; Log β130 (Fe3+) ([3]; 0.1 M NaCl, fitted): 38.8; Log β131 (Fe3+) [3, 7]: 44.5; Log β132 (Fe3+) [3, 7]: 48.3; pFe^3+ [3]: pFe^3+ = 23.4; pH from which the FeL3 chelate is stable ([4]; speciation plot FIG. 5): ≥ 5
2 | CNC(c1cn(C)c(C)c(O)c1=O)C(F)(F)F (centres unmarked) [Apo7056, 3-Hydroxy-1,2-dimethyl-5-[2,2,2-trifluoro-1-(methylamino)ethyl]pyridin-4(1H)-one] |  | 18.7 | 35.9 | 51.5 | 9.8 | 14.7 | 15.1 | 9.8 | 4.9 | 0.4 | 36.5 | 42.3 | 47.3 | 18.7 | 17.2 | 15.6 | 0.0 | 97.5 | 0.0 | 0.0 | AUC brain* [2]: 770 ng·h/mL; Kp [2]: 0.56; AUC [2]: 1380 ng·h/mL; % FeL3H (species 131) at pH 7.4 [4]: 2.40%
3 | O=c1ccn(CC(F)(F)F)c(CN2CCOCC2)c1O [Apo7323, 3-hydroxy-2-(morpholinomethyl)-1-(2,2,2-trifluoroethyl)pyridin-4(1H)-one] | 4.2 | 18.4 | 34.9 | 50.1 | 9.2 | 13.4 | 14.2 | 9.2 | 4.2 | 0.8 | 35.7 | 41.6 | 46.2 | 18.4 | 16.5 | 15.1 | 0.0 |  | 0.0 | 0.0 | % FeL3H (species 131) at pH 7.4 [4]: 3.1%
4 | Cc1c(O)c(=O)c(C(N2CCOCC2)C(F)(F)F)cn1C (centres unmarked) [Apo7435, 3-hydroxy-1,2-dimethyl-5-(2,2,2-trifluoro-1-morpholinoethyl)pyridin-4(1H)-one] | 2.5 | 15.9 | 30.4 | 44.8 | 9.8 | 12.3 | 12.3 | 9.8 | 2.5 | 0.0 | 35.6 | 39.6 | 42.7 | 15.9 | 14.5 | 14.4 | 0.0 | 100 | 0.0 | 0.0 | % FeL3H (species 131) at pH 7.4 [4]: 0.00%
5 | Cc1c(O)c(=O)ccn1C [Deferiprone, 3-hydroxy-1,2-dimethylpyridin-4(1H)-one, reference compound] |  |  |  |  |  |  |  |  |  |  |  |  |  |  |  |  |  | ~100 |  |  | Log β130 (Fe3+) ([3]; 0.1 M NaCl, fitted, listed as deferiprone): 37.24; Log β130 (Fe3+) ([3]; 0.1 M NaCl, fitted, listed as drawing 103): Logβ130 = 37.24; Logβ110 (Fe3+) ([3]; 0.1M aqueous NaCl): Logβ110 = 14.85; Logβ120 (Fe3+) ([3]; 0.1M aqueous NaCl): Logβ120 = 27.25; pFe^3+ [3]: pFe^3+ = 20.2
